The source of these data is publication PMC7178511, “Antimicrobial Activity and DNA/BSA Binding Affinity of Polynuclear Silver(I) Complexes with 1,2-Bis(4-pyridyl)ethane/ethene as Bridging Ligands” (Bioinorganic Chemistry and Applications, 2020).

Converted amounts (≈) assume the structure as drawn. Read-outs that look alike come from different tables or passages of the source.

Series [1] relates to Staphylococcus aureus ATCC 43300. The experiment in a line: Broth microdilution MIC, S. aureus. Format: cell-based. Particulars: Staphylococcus aureus. As for the experimental part: (§1) Minimal inhibitory concentration (MIC) values against Pseudomonas aeruginosa PA01, Staphylococcus aureus ATCC 43300, Salmonella enteritidis ATCC 13075, Salmonella pullorum ATCC 13036, Escherichia coli NCTC 9001, Listeria monocytogenes NCTC 11994, and Enterococcus faecalis ATCC 29212 were determined in Luria-Bertani broth (10.0 g/L tryptone, 10.0 g/L NaCl, 5.0 g/L yeast extract, pH 7.2) in accordance with the standard broth microdilution assay for bacteria that grow aerobically, as recommended by the CLSI (Clinical and Laboratory Standards Institute, Methods for Dilution Antimicrobial Susceptibility Tests for Bacteria That Grow Aerobically; Approved Standard—Tenth Edition M07-A10. CLSI). The highest tested concentration was 500 μg/mL, and the inocula were 1^·10^6 cfu/mL.

For series [2], the system named is C. glabrata ATCC 2001. The experiment in a line: Broth microdilution MIC, C. glabrata. The series is classed as cell-based, Candida glabrata. Conditions: Nakaseomyces glabratus, ATCC2001. The protocol: (§2) Stock solutions of bpa, bpe, and silver(I) complexes 1–3 were prepared fresh in DMSO (50 mg/mL) and kept at 4°C prior to use. Susceptibility testing of Candida spp. (C. albicans ATCC 10231, C. krusei ATCC 6258, C. parapsilosis ATCC 22019, and C. glabrata ATCC 2001) was performed according to CLSI broth microdilution guidelines (Clinical and Laboratory Standards Institute, Reference Method for Broth Dilution Antifungal Susceptibility Testing of Yeasts—Third Edition: Approved Standard M27-A3; Clinical and Laboratory Standards Institute, Reference Method for Broth Dilution Antifungal Susceptibility Testing of Yeasts: Fourth Informational Supplement M27-S4), in RPMI 1640 medium (Roswell Park Memorial Institute medium) containing 2% glucose (w/v). The highest tested concentration was 500 μg/mL, and the inocula were 1^·\10^5 colony forming units (cfu)/mL.

For series [3], the system named is Salmonella enteritidis ATCC 13075. The experiment in a line: Broth microdilution MIC, S. enteritidis. Particulars: Salmonella enterica, 24 h. Format: cell-based. As for the experimental part: as §1
For series [4], the system named is Escherichia coli NCTC 9001. As to the kind of experiment: Broth microdilution MIC, E. coli. Conditions: Escherichia coli. Format: cell-based. As for the experimental part: as §1
Series [5] deals with C. parapsilosis ATCC 22019. The experiment in a line: Broth microdilution MIC, C. parapsilosis. Format: cell-based, Candida parapsilosis. Conditions: Lodderomyces parapsilosis, ATCC22019. The protocol:
as §2

Series [6] relates to Pseudomonas aeruginosa PAO1. The experiment in a line: Broth microdilution MIC, P. aeruginosa. The series is classed as cell-based. Conditions: Pseudomonas aeruginosa. As for the experimental part:
as §1

Series [7] deals with Listeria monocytogenes NCTC 11994. The experiment in a line: Broth microdilution MIC, L. monocytogenes. The series is classed as cell-based. Particulars: Listeria monocytogenes. The protocol: as §1
The nature of series [8]: MTT assay on a human fibroblast cell line. Format: cell-based. Particulars: human, MRC-5, MTT, read-out: IC50 (cytotoxic effect on MRC-5 cells). As for the experimental part: Antiproliferative activity was tested by 3-(4,5-dimethylthiazol-2-yl)-2,5-diphenyltetrazolium bromide (MTT) assay on a human lung fibroblast cell line (MRC-5; ATCC collection). Pregrown (24 h) cell monolayers were incubated in the media containing the tested compounds at concentrations ranging from 5 to 500 μg/mL and the cell viability was measured after 48 h. RPMI 1640 medium supplemented with 100 μg/mL streptomycin, 100 U/mL penicillin, and 10% (v/v) FBS (all from Sigma, Munich, Germany) was used for the cultivation of MRC-5 cell line. Cells were maintained as a monolayer (1^·10^4 cells per well) in RPMI 1640 and grown in a humidified atmosphere of 95% air and 5% CO2 at 37°C. The extent of MTT reduction was measured spectrophotometrically at 540 nm using Tecan Infinite 200 Pro multiplate reader (Tecan Group Ltd, Männedorf, Switzerland), and the cell survival was expressed as a percentage of the control (untreated cells). Cytotoxicity was expressed as the concentration of the compound inhibiting cell growth by 50% (IC50).

For series [9], the system named is C. albicans ATCC 10231. The experiment in a line: Broth microdilution MIC, C. albicans. Conditions: Candida albicans, ATCC10231. The series is classed as cell-based, Candida albicans. The protocol:
as §2

For series [10], the system named is Enterococcus faecalis ATCC 29212. The experiment in a line: Broth microdilution MIC, E. faecalis. The series is classed as cell-based. Particulars: Enterococcus faecalis. As for the experimental part: as §1
Series [11] has as its system Salmonella pullorum ATCC 13036. The experiment in a line: Broth microdilution MIC, S. pullorum. The series is classed as cell-based. Particulars: Salmonella enterica, 24 h. The protocol:
as §1

Series [12] relates to investigated bacterial strains. As to the kind of experiment: Broth microdilution MIC, panel of bacterial strains. The series is classed as cell-based. As for the experimental part:
as §1

Series [13] deals with C. krusei ATCC 6258. The experiment in a line: Broth microdilution MIC, C. krusei. The series is classed as cell-based, Candida krusei. Conditions: Pichia kudriavzevii, ATCC6258. As for the experimental part: as §2
The subject of series [14] is calf thymus DNA (ctDNA). Particulars: proven DNA intercalator; cited from earlier work.

For the compound `c1cc(CCc2ccncc2)ccn1` [bpa, 1,2-Bis(4-pyridyl)ethane], the MIC in [1] (ATCC43300, 24 h) was over 500 µg/mL; in [2] it was over 500 µg/mL; in series [3], over 500 µg/mL; in series [4] (NCTC9001, 24 h), over 500 µg/mL; in series [5] it was 250 µg/mL (≈ 1360 µM); in [6] (PAO1, 24 h) it was over 500 µg/mL. For the same compound, the MIC is over 500 µg/mL in [7] (NCTC11994, 24 h); 125 µg/mL (≈ 678 µM) in [9]; over 500 µg/mL in [10] (ATCC29212, 24 h); over 500 µg/mL in series [11]; 125 µg/mL (≈ 678 µM) in [13]. Further, in series [8], the IC50 at 48 h was 300 µg/mL (≈ 1630 µM). Moreover, the “MIC / antibacterial activity” value in series [12] was “not significant”.

As to `C(=Cc1ccncc1)c1ccncc1` [bpe, 1,2-bis(4-pyridyl)ethene, reference compound], the MIC in [1] (ATCC43300, S. aureus ATCC 43300, Luria-Bertani broth, 24 h, 37°C, read-out: MIC) is over 500 µg/mL; in series [2] (C. glabrata ATCC 2001, RPMI 1640 with 2% glucose, read-out: MIC) it was 100 µg/mL (≈ 549 µM); in series [3] (S. enteritidis ATCC 13075, Luria-Bertani broth, 37°C, read-out: MIC), over 500 µg/mL; in series [4] (NCTC9001, E. coli NCTC 9001, Luria-Bertani broth, 24 h, 37°C, read-out: MIC) it was 250 µg/mL (≈ 1370 µM); in series [5] (C. parapsilosis ATCC 22019, RPMI 1640 with 2% glucose, read-out: MIC), 125 µg/mL (≈ 686 µM); in [6] (P. aeruginosa PAO1, Luria-Bertani broth, 24 h, 37°C, read-out: MIC), 500 µg/mL (≈ 2740 µM). The MIC in series [7] (NCTC11994, L. monocytogenes NCTC 11994, Luria-Bertani broth, 24 h, 37°C, read-out: MIC) is 100 µg/mL (≈ 549 µM); in series [9] (C. albicans ATCC 10231, RPMI 1640 with 2% glucose, read-out: MIC) it was 200 µg/mL (≈ 1100 µM); in series [10] (ATCC29212, E. faecalis ATCC 29212, Luria-Bertani broth, 24 h, 37°C, read-out: MIC), over 500 µg/mL; in series [11] (S. pullorum ATCC 13036, Luria-Bertani broth, 37°C, read-out: MIC) it was over 500 µg/mL; in series [13] (C. krusei ATCC 6258, RPMI 1640 with 2% glucose, read-out: MIC), 200 µg/mL (≈ 1100 µM). In addition, the IC50 at 48 h in [8] (MRC-5 human lung fibroblast cells) came to 220 µg/mL (≈ 1210 µM). Moreover, the “MIC / antibacterial activity” value in series [12] is listed as “not significant”.

As for `C[n+]1c2ccccc2c(-c2c3ccccc3[n+](C)c3ccccc23)c2ccccc21` [lucigenin], the Hypochromism in [14] is 50%.
